Experimental data published in US20080153891A1, “SYNERGISTIC ANTI-CANCER COMPOSITIONS” (The Arizona Board of Regents, priority 2003, published 2008).

What was measured:
A375 cells = assay: Combination cytotoxicity with imexon, SRB assay, combination index (median-effect); assay type: cell-based, human; details: in combination with imexon at fixed constant ratio, 5 days after drugging, classified by combination index
8226/s cells = assay: Combination cytotoxicity with imexon, MTT assay, combination index (median-effect); assay type: cell-based, human; details: in combination with imexon at fixed constant ratio, 5 days after drugging, classified by combination index
[1] = Toxicology study in non-tumor bearing (normal) mice
Description: A toxicology study was performed in non-tumor bearing (i.e., normal) mice given imexon (100 mg/kg/day×9 days) with either gemcitabine (180 mg/kg days 1, 5 and 9) or cytarabine (800 mg/kg days 1, 4 and 7). The tests were conducted to evaluate whether there was increased bone marrow toxicity or decreased renal and hepatic function for imexon combined with either agent.

Row | SMILES | Effect of second antineoplastic agent in combination with imexon, A375 CELL LINE (A375 cells) | Effect of second antineoplastic agent in combination with imexon, 8226/S CELL LINE (8226/s cells) | Mean Platelet Counts (SD), Day 10 ([1]; Day 10, imexon 100 mg/kg days 1-9, cytarabine 800 mg/kg days 1, 4, 7, gemcitabine 180 mg/kg days 1, 5, 9) | Mean Platelet Counts (SD), Day 12 ([1]; Day 12, imexon 100 mg/kg days 1-9, cytarabine 800 mg/kg days 1, 4, 7, gemcitabine 180 mg/kg days 1, 5, 9) | number of red blood cells ([1]; imexon 100 mg/kg/day x 9 days)
1 | O=c1[nH]cc(F)c(=O)[nH]1 [5-fluorouracil] | Synergistic (Where the combination index is less than 1, synergism is indicated) | Synergistic (Where the combination index is less than 1, synergism is indicated) | – | – | –
2 | N=C1NC(=O)N2CC12 (stereo not shown) [Imexon, 4-imino-1,3-diazabicyclo[3.1.0]-hexan-2-one] | – | – | 880 (180) × 1000/μL | 920 (138) × 1000/μL | increased slightly
3 | N.N.[Cl][Pt][Cl] [cisplatin] | Synergistic (Where the combination index is less than 1, synergism is indicated) | Synergistic (Where the combination index is less than 1, synergism is indicated) | – | – | –
4 | Nc1ccn([C@@H]2O[C@H](CO)[C@@H](O)[C@@H]2O)c(=O)n1 [cytarabine] | Synergistic (Where the combination index is less than 1, synergism is indicated) | Synergistic (Where the combination index is less than 1, synergism is indicated) | – | – | –
5 | CN(C)/N=N/c1[nH]cnc1C(N)=O [dacarbazine (DTIC), dacarbazine] | Synergistic (Where the combination index is less than 1, synergism is indicated) | Synergistic (Where the combination index is less than 1, synergism is indicated) | – | – | –
6 | C[C@@H]1C[C@H]2[C@@H]3CCC4=CC(=O)C=C[C@]4(C)[C@@]3(F)[C@@H](O)C[C@]2(C)[C@@]1(O)C(=O)CO [dexamethasone] | Additive (Where the combination index is equal to 1, summation (also commonly referred to as additivity) is indicated) | Antagonistic (Where the combination index is greater than 1, antagonism is indicated) | – | – | –
7 | COc1cccc2c1C(=O)c1c(O)c3c(c(O)c1C2=O)C[C@@](O)(C(=O)CO)C[C@@H]3O[C@H]1C[C@H](N)[C@H](O)[C@H](C)O1 [doxorubicin] | Antagonistic (Where the combination index is greater than 1, antagonism is indicated) | Antagonistic (Where the combination index is greater than 1, antagonism is indicated) | – | – | –
8 | Nc1ccn([C@@H]2O[C@H](CO)[C@@H](O)C2(F)F)c(=O)n1 [gemcitabine] | Synergistic (Where the combination index is less than 1, synergism is indicated) | Synergistic (Where the combination index is less than 1, synergism is indicated) | – | – | –
9 | CN(Cc1cnc2nc(N)nc(N)c2n1)c1ccc(C(=O)N[C@@H](CCC(=O)O)C(=O)O)cc1 [methotrexate] | Antagonistic (Where the combination index is greater than 1, antagonism is indicated) | Antagonistic (Where the combination index is greater than 1, antagonism is indicated) | – | – | –
10 | CC(=O)O[C@H]1C(=O)[C@@]2(C)[C@H]([C@H](OC(=O)c3ccccc3)[C@]3(O)C[C@H](OC(=O)[C@H](O)[C@@H](NC(=O)c4ccccc4)c4ccccc4)C(C)=C1C3(C)C)[C@]1(OC(C)=O)CO[C@@H]1C[C@@H]2O [paclitaxel] | Additive (Where the combination index is equal to 1, summation (also commonly referred to as additivity) is indicated) | Antagonistic (Where the combination index is greater than 1, antagonism is indicated) | – | – | –
11 | CC(=O)O[C@@]12CO[C@@H]1C[C@H](O)[C@@]1(C)C(=O)[C@H](O)C3=C(C)[C@@H](OC(=O)[C@H](O)[C@@H](NC(=O)OC(C)(C)C)c4ccccc4)C[C@@](O)([C@@H](OC(=O)c4ccccc4)[C@H]21)C3(C)C [taxotere, docetaxel] | Synergistic (Where the combination index is less than 1, synergism is indicated) | Synergistic (Where the combination index is less than 1, synergism is indicated) | – | – | –
12 | CCC1=C[C@@H]2CN(C1)Cc1c([nH]c3ccccc13)[C@@](C(=O)OC)(c1cc3c(cc1OC)N(C)[C@H]1[C@@](O)(C(=O)OC)[C@H](OC(C)=O)[C@]4(CC)C=CCN5CC[C@]31[C@@H]54)C2 [vinorelbine] | Additive (Where the combination index is equal to 1, summation (also commonly referred to as additivity) is indicated) | Additive (Where the combination index is equal to 1, summation (also commonly referred to as additivity) is indicated) | – | – | –
